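Test compounds were applied to cells in 96-well plates for 48 hours at 5 doses. GI50: concentration for 50% inhibition of growth.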 Active and inactive are the calls of the source. Cut-off read from the data, not from the text of the source: active = GI50 up to about 1.1 µM and inactive = higher. Square brackets hold non-standard residues; d marks the D form. Peptide text beside a SMILES is read from it. * marks the point of attachment. AllylGly = C=CC[CH](N)C(=O)O; Boc = CC(C)(C)OC(=O)*; OtBu = CC(C)(C)O*
What was measured:
Experiment in all cases: NCI tumour cell line growth inhibition, 48 h
[1] = tested on: SF-539
[2] = tested on: UACC-62
[3] = tested on: RXF 393
[4] = tested on: LOX IMVI
[5] = tested on: NCI-H226
[6] = tested on: Malme-3M
[7] = tested on: SN12C
[8] = tested on: IGROV-1
[9] = tested on: NCI-H522
[10] = tested on: BT-549
[11] = tested on: TK-10
[12] = tested on: HOP-92
[13] = tested on: UO-31
[14] = tested on: SNB-75
[15] = tested on: KM12
[16] = tested on: SNB-19
[17] = tested on: T47D
[18] = tested on: A549
[19] = tested on: M14
[20] = tested on: RPMI-8226

SMILES | GI50 [1] | GI50 [2] | GI50 [3] | GI50 [4] | GI50 [5] | GI50 [6] | GI50 [7] | GI50 [8] | GI50 [9] | GI50 [10] | GI50 [11] | GI50 [12] | GI50 [13] | GI50 [14] | GI50 [15] | GI50 [16] | GI50 [17] | GI50 [18] | GI50 [19] | GI50 [20]
O=C(/C=C1\C[C@H]2C=Nc3ccccc3C(=O)N2C1)NCCCCNC(=O)/C=C1\C[C@H]2C=Nc3ccccc3C(=O)N2C1 | 14.9 µM (inactive) | 15.3 µM (inactive) | 6.15 µM (inactive) | 1.97 µM (inactive) | 13.8 µM (inactive) | 6.81 µM (inactive) | 5.05 µM (inactive) | 14.5 µM (inactive) | 1.4 µM (inactive) | 12.9 µM (inactive) | 10.4 µM (inactive) | 7.93 µM (inactive) | 2.39 µM (inactive) | 16.3 µM (inactive) | 17.5 µM (inactive) | 16.6 µM (inactive) | 4.39 µM (inactive) | 20.7 µM (inactive) | 6.12 µM (inactive) | 4.24 µM (inactive)
CCCC(=O)Nc1cc(/C=C/C(=O)N2CC(CCl)c3c2cc(OC(C)=O)c2[nH]cc(C)c32)n(C)c1 (stereo not given) | < 2.5e-05 µM (active) | < 2.5e-05 µM (active) | < 2.5e-05 µM (active) | < 2.5e-05 µM (active) | 4.33e-05 µM (active) | 3.23e-05 µM (active) | 7.18e-05 µM (active) | 3.76e-05 µM (active) | < 2.5e-05 µM (active) | 8.09e-05 µM (active) | 0.000363 µM (active) | 4.28e-05 µM (active) | 6.84e-05 µM (active) | 5.77e-05 µM (active) | 8.73e-05 µM (active) | 0.00011 µM (active) | 6.3e-05 µM (active) | 8.19e-05 µM (active) | 5.38e-05 µM (active) | 0.000171 µM (active)
C=CC1(CBr)CCC(C(C)(C)Br)O1 (stereo not given) | 16.9 µM (inactive) | 10.3 µM (inactive) | 13.7 µM (inactive) | 1.74 µM (inactive) | 21 µM (inactive) | 13.7 µM (inactive) | 16.6 µM (inactive) | 8.13 µM (inactive) | 2.51 µM (inactive) | 16.7 µM (inactive) | 15.1 µM (inactive) | 14.9 µM (inactive) | 12.7 µM (inactive) | 5.65 µM (inactive) | 12.2 µM (inactive) | 15.8 µM (inactive) | 2.28 µM (inactive) | 17.3 µM (inactive) | 13.1 µM (inactive) | 1.79 µM (inactive)
OCC1OC(n2cnc3c(SCc4ccccc4)ncnc32)C(O)C1O (stereo not given) | > 100 µM (inactive) | 98.9 µM (inactive) | 20.2 µM (inactive) | 2.13 µM (inactive) | > 67.3 µM (inactive) | > 100 µM (inactive) | 7.5 µM (inactive) | > 89.1 µM (inactive) | 17.5 µM (inactive) | 16.6 µM (inactive) | > 21.8 µM (inactive) | 4.75 µM (inactive) | 23 µM (inactive) | > 100 µM (inactive) | > 100 µM (inactive) | > 100 µM (inactive) | 40.5 µM (inactive) | 26.3 µM (inactive) | 99.3 µM (inactive) | 19.4 µM (inactive)
C=C(CN(C)C)C(=O)c1ccc(Oc2ccccc2)cc1 | 3.13 µM (inactive) | 4.39 µM (inactive) | 2.4 µM (inactive) | 5.57 µM (inactive) | 13.6 µM (inactive) | 3.85 µM (inactive) | 5.37 µM (inactive) | 14.9 µM (inactive) | 1.55 µM (inactive) | 6.18 µM (inactive) | 5.86 µM (inactive) | 2.18 µM (inactive) | 3.53 µM (inactive) | 15.9 µM (inactive) | 12.8 µM (inactive) | 9.64 µM (inactive) | 2.7 µM (inactive) | 19.5 µM (inactive) | 1.76 µM (inactive) | 0.962 µM (active)
C=CCC(NC(=O)C(CC(=O)OC(C)(C)C)NC(=O)OC(C)(C)C)C(=O)OC (stereo not given) (Boc-Asp(OtBu)-[AllylGly]-OMe; configuration not given here) | > 100 µM (inactive) | 48.3 µM (inactive) | 99.3 µM (inactive) | 20.9 µM (inactive) | > 100 µM (inactive) | 1.84 µM (inactive) | > 67 µM (inactive) | > 100 µM (inactive) | > 100 µM (inactive) | > 100 µM (inactive) | > 100 µM (inactive) | > 78.2 µM (inactive) | > 100 µM (inactive) | 97.9 µM (inactive) | > 55.2 µM (inactive) | > 100 µM (inactive) | 37.6 µM (inactive) | > 100 µM (inactive) | 20.2 µM (inactive) | 32.4 µM (inactive)
COc1c(-c2nc3ccc(N4CCN(C)CC4)cc3[nH]2)cc(OC)c2[nH]c(CO)nc12 | > 100 µM (inactive) | > 100 µM (inactive) | > 100 µM (inactive) | 88.5 µM (inactive) | > 100 µM (inactive) | > 100 µM (inactive) | 74.6 µM (inactive) | > 100 µM (inactive) | 65.2 µM (inactive) | > 100 µM (inactive) | > 100 µM (inactive) | > 100 µM (inactive) | > 100 µM (inactive) | 48.3 µM (inactive) | 49.3 µM (inactive) | 44.4 µM (inactive) | > 100 µM (inactive) | > 100 µM (inactive) | > 100 µM (inactive) | > 100 µM (inactive)
O=C(O)CNC(=O)CO/N=C1/C(=C2/C(=O)Nc3ccccc32)Nc2ccccc21 | > 100 µM (inactive) | > 100 µM (inactive) | 55.1 µM (inactive) | > 100 µM (inactive) | > 100 µM (inactive) | > 100 µM (inactive) | > 100 µM (inactive) | 72.6 µM (inactive) | > 100 µM (inactive) | > 100 µM (inactive) | > 100 µM (inactive) | > 100 µM (inactive) | 26.5 µM (inactive) | > 100 µM (inactive) | 4.9 µM (inactive) | 70.5 µM (inactive) | 56.9 µM (inactive) | 86.5 µM (inactive) | > 100 µM (inactive) | > 100 µM (inactive)
c1csc(-c2cscc2-c2ccsc2)c1 | > 53.2 µM (inactive) | 70.3 µM (inactive) | 20.9 µM (inactive) | 41.1 µM (inactive) | > 43.5 µM (inactive) | 20.9 µM (inactive) | > 86.1 µM (inactive) | 68.9 µM (inactive) | 22.2 µM (inactive) | > 100 µM (inactive) | > 100 µM (inactive) | > 86.5 µM (inactive) | > 70.8 µM (inactive) | > 52.1 µM (inactive) | 32.1 µM (inactive) | > 57.5 µM (inactive) | > 55.1 µM (inactive) | 47.9 µM (inactive) | 54.1 µM (inactive) | 34 µM (inactive)
Cc1ccc2c3ccc4c(c3n(C)c2c1)C(=O)C=CC4=O | > 5.98 µM (inactive) | > 8.22 µM (inactive) | 4.25 µM (inactive) | > 10 µM (inactive) | > 10 µM (inactive) | 2.58 µM (inactive) | > 10 µM (inactive) | > 10 µM (inactive) | 2.95 µM (inactive) | 3.32 µM (inactive) | 4.82 µM (inactive) | 3.1 µM (inactive) | > 10 µM (inactive) | > 10 µM (inactive) | > 10 µM (inactive) | > 10 µM (inactive) | 2.43 µM (inactive) | > 10 µM (inactive) | 3.66 µM (inactive) | 2.39 µM (inactive)
CCN(CC)CCC(=O)c1ccc(Cl)c(Cl)c1 | > 10 µM (inactive) | 14.8 µM (inactive) | 12.5 µM (inactive) | 15 µM (inactive) | > 100 µM (inactive) | 24.7 µM (inactive) | 39.3 µM (inactive) | 39.5 µM (inactive) | 17.3 µM (inactive) | 21.2 µM (inactive) | > 10 µM (inactive) | 14.8 µM (inactive) | 41.3 µM (inactive) | 27.7 µM (inactive) | 34.6 µM (inactive) | > 100 µM (inactive) | 18.6 µM (inactive) | > 100 µM (inactive) | 42.3 µM (inactive) | 3.61 µM (inactive)
O=C1C(Cl)=C(NCCO)C(=O)c2c(O)ccc(O)c21 | 2.52 µM (inactive) | 1.7 µM (inactive) | 1.96 µM (inactive) | 1.64 µM (inactive) | > 10 µM (inactive) | 1.4 µM (inactive) | 2.56 µM (inactive) | 2.49 µM (inactive) | > 10 µM (inactive) | 4.26 µM (inactive) | > 10 µM (inactive) | > 10 µM (inactive) | 6.7 µM (inactive) | 4.38 µM (inactive) | 2.05 µM (inactive) | 5.33 µM (inactive) | 4.24 µM (inactive) | 1.87 µM (inactive) | 2.16 µM (inactive) | 3.12 µM (inactive)
CCCCCCc1cc2cc(-c3cn4ccccc4n3)c(=O)oc2cc1O | 2.76 µM (inactive) | 8.17 µM (inactive) | 4.14 µM (inactive) | 4.72 µM (inactive) | 19.1 µM (inactive) | 1.71 µM (inactive) | 5.35 µM (inactive) | 11.2 µM (inactive) | 5.37 µM (inactive) | 10.1 µM (inactive) | 15.5 µM (inactive) | 15.5 µM (inactive) | 8.39 µM (inactive) | 3.14 µM (inactive) | 16.1 µM (inactive) | 13.2 µM (inactive) | 19.2 µM (inactive) | 16.5 µM (inactive) | 5.52 µM (inactive) | 3.68 µM (inactive)
CN(Cc1ccccc1)Cn1ccnc1 | > 100 µM (inactive) | > 100 µM (inactive) | > 100 µM (inactive) | > 88.3 µM (inactive) | > 100 µM (inactive) | 24.9 µM (inactive) | 95.1 µM (inactive) | 36.2 µM (inactive) | 89.3 µM (inactive) | > 100 µM (inactive) | > 100 µM (inactive) | 25.7 µM (inactive) | 54.7 µM (inactive) | > 100 µM (inactive) | > 100 µM (inactive) | > 100 µM (inactive) | > 60.7 µM (inactive) | > 100 µM (inactive) | 20.5 µM (inactive) | 29.2 µM (inactive)

Source: ChEMBL document CHEMBL1201862, “PubChem BioAssay data set” (2004)
